Results as given in patent US20250333745A1, “METHODS AND COMPOSITIONS FOR TREATMENT OF POLYCYSTIC KIDNEY DISEASE” (Regulus Therapeutics Inc., priority 2016, published 2025).

Legend:
[1] = Pharmacokinetic profile after single 30 mg/kg subcutaneous dose in wild-type mice; format: in vivo, mouse; conditions: single s.c. dose 30 mg/kg
Procedure: A full pharmacokinetic profile for selected compounds that have passed multiple screening criteria was obtained in C57BL6 mice. In one study, mice are administered a single subcutaneous injection of anti-miR-17 compound at 30 mg/kg. In another study, mice are administered three subcutaneous injections of anti-miR-17 compound at 39 mg/kg, over a two-month period. In each study, liver and kidney samples are collected at 1 hour, 4 hours, 8 hours, 1 day, 4 days, 7 days, 14 days, 28 days, and 56 days following injections.
Pharmacokinetic behavior was assessed by administering a single subcutaneous 30 mg/kg dose of RG4326 or tool anti-miR-17 compound to wild-type mice. At one hour, four hours, eight hours, one day, seven days, 14 days, 28 days and 56 days following the single injection, mice were sacrificed and the mean concentration of anti-miR compound in kidney and liver tissue was measured (ug/g) as described above. The area-under-curve (AUC) was calculated for kidney and liver tissue using the formula ug*h/g, where ug is the amount of oligonucleotide in the tissue, h is the timepoint of tissue collection in hours, and g is the weight of the tissue. The ratio of kidney AUC to liver AUC was determined. Kidney tissue was also processed to the miPSA, to determine target engagement for each compound in this study. PSA AUC was calculated using the formula Log2FC*h, where Log2FC is the displacement value, h is the timepoint of tissue collection in hours. Potency in the kidney at day 7 was calculated using the formula […] where Log2FC is the displacement value as determined by the miPSA, g is the weight of the kidney tissue, and ug is the amount of anti-miR in the kidney tissue at day seven.

[2] = In vitro metabolic stability in mouse liver lysate; format: in vitro ADME; conditions: 24-hour incubation of RG4326
Procedure: Metabolic stability was evaluated by incubating each anti-miR-17 compound in a mouse liver lysate. After 24 hours, the percentage of intact compound remaining is calculated. Compounds that are not stable following a 24-hour incubation are potentially not stable in vivo.
(§1) Due to their reduced capacity for serum protein binding, which is a property that drives oligonucleotide distribution in the body, short oligonucleotides are not necessarily expected to have pharmacokinetic properties that make them suitable for use as drugs. RG4326 was incubated in mouse, monkey or human liver homogenate. The identity and concentration of RG4326 and metabolites was determined after a 24-hour incubation. RG4326 and metabolites were extracted using liquid-liquid extraction (LLE) and/or solid-phase extraction (SPE), which were then analyzed for identity and concentration using ion-pairing-reversed-phase high performance liquid chromatography coupled with time-of-flight mass spectrometry (IP—RP-HPLC-TOF).

[3] = Metabolic stability in liver homogenate, summary over species; format: in vitro ADME; conditions: mouse, monkey or human liver homogenate
Procedure: as §1

[4] = In vitro metabolic stability in monkey liver lysate; format: in vitro ADME; conditions: 24-hour incubation of RG4326
Procedure: as §1

miR-17 = miR-17 luciferase reporter assay in HeLa cells; format: cell-based; conditions: for Luciferase Fold Derepression: mean
Procedure: In vitro potency was evaluated using a luciferase reporter assay. A luciferase reporter plasmid for miR-17, with […] in the 3′-UTR of the luciferase gene. Compounds of longer lengths were selected if their maximum inhibition was greater than that of the tool anti-miR-17 compound. As shorter compounds, such as 9-mers, are typically not maximally active in the same assay conditions used for longer compounds, shorter compounds were selected based on maximum inhibition relative to appropriate control compounds. In this way, compounds that are diverse in both length and chemical composition were included in further testing.
One assay employed was the luciferase assay. […] Accordingly, the luciferase assay transfection conditions were optimized for short anti-miR-17 compounds, so that the inhibitory activity of the compounds could be measured.
The luciferase reporter plasmid for miR-17 contained a fully complementary miR-17 binding site in the 3′-UTR of the luciferase gene. HeLa cells were transfected with the microRNA mimic and its cognate luciferase reporter, followed by transfection with anti-miR-17 at doses of […], 3, 10, 30, 100, and 300 nM. At the end of the 24-hour transfection period, luciferase activity was measured. As shown in Table 2-1, RG4047, while not as potent as RG4326, inhibited miR-17 activity in a dose dependent manner. SD indicates standard deviation.
Additional in vitro assays were conducted to further explore the potency of RG4326. A luciferase reporter assay was used to test the ability of RG4326 to inhibit the miR-17 family members miR-17, miR-20a, miR-93, and miR-106b. A luciferase reporter plasmid for each of miR-20a, miR-93, and miR-106b was constructed, with a fully complementary microRNA binding site in the 3′-UTR of the luciferase gene. HeLa cells were transfected with the microRNA mimic and its cognate luciferase reporter, followed by transfection with anti-miR-17 at a dose of 100 nm. […] As RG4326 is 100% complementary to the other miR-17 family members not tested, miR-20b and […], it is expected to inhibit these microRNAs as well.

Viscosity = format: physicochemical; conditions: approximately 150 mg/mL in water at 20° C.
Procedure: RG4326 has the following sequence and chemical modification pattern: ASGSCMAFCFUFUMUSGS where nucleosides followed by subscript “M” are 2′-O-methyl nucleosides, nucleosides followed by subscript “F” are 2′-fluoro nucleosides, nucleosides followed by subscript “S” are S-cEt nucleosides, each cytosine is a non-methylated cytosine and all linkages are phosphorothioate linkages. […] Additionally, the viscosity of RG4326 was determined to be 6 cP at a concentration of approximately 150 mg/mL (in water at 20° C.), thus RG4326 in solution is suitable for administration by subcutaneous injection.

[5] = 0.001 nM anti-miR-17, 24-hour transfection
[6] = 3 nM anti-miR-17, 24-hour transfection
[7] = 10 nM anti-miR-17, 24-hour transfection
[8] = 30 nM anti-miR-17, 24-hour transfection
[9] = 100 nM anti-miR-17, 24-hour transfection
[10] = 300 nM anti-miR-17, 24-hour transfection

Compound	KAUC/LAUC Ratio [1]	Kidney AUC (one hour to 56 days) [1]	Liver AUC (one hour to 56 days) [1]	Ex Vivo Liver Lysate (% Analyte), Mouse [2]	parent compound remaining intact after the 24-hour incubation [3]	Ex Vivo Liver Lysate (% Analyte), Monkey [4]	Luciferase Fold Derepression (miR-17; [5])	Luciferase Fold Derepression (miR-17; [6])	Luciferase Fold Derepression (miR-17; [7])	Luciferase Fold Derepression (miR-17; [8])	Luciferase Fold Derepression (miR-17; [9])	Luciferase Fold Derepression (miR-17; [10])	Mean luciferase fold derepression, miR-17 (miR-17; anti-miR-17 at 100 nm)	viscosity (Viscosity)
5′-CTGCACTGTAAGCACTTTG-3′ (all phosphorothioate, sugars by position and methylation of C not given here; DNA, 2'-MOE and S-cEt sugars) [Tool anti-miR-17, reference compound]	1.0	20711 µg·h/g	20275 µg·h/g	–	–	–	–	–	–	–	–	–	–	–
COC1C(OP(=O)(S)OC[C@H]2O[C@@H](n3cnc4c(N)ncnc43)C(F)C2OP(=O)(S)OC[C@H]2O[C@@H](n3ccc(N)nc3=O)C(F)C2OP(=O)(S)OC[C@H]2O[C@@H](n3ccc(=O)[nH]c3=O)C(F)C2OP(=O)(S)OC[C@H]2O[C@@H](n3ccc(=O)[nH]c3=O)C(OC)C2OP(=O)(S)OC[C@]23O[C@@H](n4ccc(=O)[nH]c4=O)C(O[C@H]2C)C3OP(=O)(S)OC[C@]23O[C@@H](n4cnc5c(=O)[nH]c(N)nc54)C(O[C@H]2C)C3O)[C@@H](COP(=O)(S)OC2C3O[C@@H](C)[C@]2(COP(=O)(S)OC2C4O[C@@H](C)[C@]2(CO)O[C@H]4n2cnc4c(N)ncnc42)O[C@H]3n2cnc3c(=O)[nH]c(N)nc32)O[C@H]1n1ccc(N)nc1=O (stereo in doubt) [RG4326, ASGSCMAFCFUFUMUSGS]	4.4	5347 µg·h/g	1206 µg·h/g	99.1%	over 95%	95.9%	1	5.3	10.4	14.1	13.9	11.7	13.1	6 cP
ASCSAMAFUFGFCMASCS [RG5124, reference compound]	–	–	–	–	–	–	1	1.2	2.6	1	0.7	1	–	–
